Experimental data from patent publication US20240238238A1, “Isotopically Modified Composition and Therapeutic Uses Thereof” (BioJiva LLC, priority 2018, published 2024).

What was measured:
[1] = Plasma PK by LC-MS (D2-LA, LA, D2-AA) in the phase I/II trial
Experimental: (§1) PK samples were obtained predose and at 0.5, 1, 1.5, 2, 4, 6, 8, 12, 16, and 24 hours following the first dose and 14, 28, 29, 30, and 31 days following enrollment. The samples taken on Days 29-31 represent Isotopically modified polyunsaturated fatty acid, ester, thioester, amide, or other prodrug thereof (e.g., 11,11,D2-linoleic acid ethyl ester) washout levels. D2-LA, linoleic acid (LA), deuterated arachidonic acid (D2-AA), and arachidonic acid (ARA) concentrations were measured in the samples.
(§2) Plasma concentrations of 11,11-D2-linoleic acid ethyl ester (combined free acid form and ester form) and non-deuterated analogs were determined by liquid chromatography and mass spectrometry (LCMS). Blood was collected in K2EDTA anticoagulant tubes, centrifuged to obtain plasma and red blood cells (RBCs), and frozen until analyzed. The samples were hydrolyzed to free fatty acids and analyzed by high performance LC-MS by Good Laboratory Practice validated methods. Low-intensity D2 and high-intensity H2 signals were measured with high accuracy at Ricerca Biosciences, using an AB SCIEX 6500 tandem-quadrupole MS. The 13C2 isotopomer signal was used as a calibration standard for 11,11,D2-linoleic acid ethyl ester; a polydeuterated internal standard was utilized. The enzymatic elongation/desaturation metabolite, 13,13-D2-arachidonic acid (D2-AA), was also measured, in plasma and red blood cells (RBCs).

[2] = system: Friedreich's ataxia patients; test: Phase I/II double blind, comparator-controlled trial: safety and tolerability; format: in vivo, human; conditions: for Safety and tolerability: oral, 1.8 or 9.0 g/day, FRDA patients
Experimental: A phase I/II double blind, comparator-controlled trial with 2 doses of 11,11-D2-linoleic acid ethyl ester in Friedreich's ataxia patients (9 subjects in each cohort) was conducted. Subjects were randomized 2:1 to receive either 11,11-D2-linoleic acid ethyl ester (1.8 or 9.0 g/day), or a matching dose of non-deuterated ethyl linoleate as comparator for 28 days.
(§3) The primary study objectives were to evaluate the safety and tolerability of orally administered 11,11-D2-linoleic acid ethyl ester. Additional study objectives included identifying the PK of 11,11-D2-linoleic acid ethyl ester following single and multiple oral dose administration and establishing an optimum dose of 11,11-D2-linoleic acid ethyl ester. Additional clinical testing consisted of the Friedreich's Ataxia Rating Scale (FARS)-Neurological point (FARS-Neuro), the timed 25-foot walk (T25FW) with an electronic sensor to measure multiaxis components of motion during the study, and cardiopulmonary exercise testing (CPET). The CPET was performed on an electronically braked cycle ergometer (Lode Corival, Groningen, The Netherlands). The protocol included: 5 minutes of rest; 3 minutes of an unloaded cycling warm-up; a progressive protocol with increased workload each minute (5-25 watts based on estimated functional capacity); 2 minutes of an unloaded cycling recovery; and 10 minutes of passive recovery. Heart rate (HR), blood pressure (BP), ratings of perceived exertion (RPE), pulse oximetry, and expired gases were monitored in accord with standard exercise testing guidelines. Scc Pescatello et al., Thompson P. ACSM's Guidelines for Exercise Testing and Prescription. Baltimore, MD: Wolters Kluwer; 2014:114-141. Heart rate was measured by electrocardiogra (Pulse Biomedical, King of Prussia, PA), BP was determined by auscultation, RPE was estimated using the standard 6 to 20 scale, and expired gases were collected through a silicone rubber mask (Hans Rudolph, Shawnee, KS) and analyzed continuously using a metabolic cart (Parvomedics, AQ5 Sandy, UT) Vacumetrics (Ventura, CA). Endpoints of interest were peak oxygen consumption (VO2 peak) and peak workload. All other variables were primarily assessed to monitor patient safety and progress during the exercise trial.
The study included male or female participants, aged 18 to 50 years, with a FRDA onset at equal or less than 25 years of age, homozygosity for GAA repeat expansions in FXN, and FARS-Neuro range of 20 to 90 points. Participants were ambulatory (with or without assistive device), capable of performing other assessments/evaluations, with a body mass index (BMI) equal or less than 34 kg/m^2. Subjects were agreeable to dietary restriction coaching from a diet counselor to lower PUFA dietary intake, for maximal incorporation of 11,11-D2-linoleic acid ethyl ester. Sample size was selected to ensure 12 fully evaluable patients for active treatment and 6 patients for the comparator treatment. It was not powered, but considered adequate for a first-in-human trial of 11,11-D2-linoleic acid ethyl ester.
A randomization schedule was generated before the first dosing period by Agility Clinical, Inc. (Carlsbad, CA) that followed their established standard operating procedures regarding generation, security, and distribution of the randomization scheme. Patients who provided informed consent and met all enrollment criteria were randomized into the study. In order to randomize a patient, the site contacted the unblinded statistician at Agility, Inc to identify which kit should be provided to the patient.
Patients were randomly assigned to receive one of two treatments (11,11,D2-linoleic acid ethyl ester or comparator) following a 2:1 ratio, respectively. The study sponsor, investigators, research pharmacy, and patients were blinded to the subject's treatment. […]

[3] = system: Friedreich's ataxia patients; test: Cardiopulmonary exercise testing (CPET): peak workload, VO2max; format: in vivo, human; conditions: for Median change from baseline in peak oxygen consumption (VO2max): baseline to day 28, P=0.116
Text: as §3
Four protocol-defined outcomes (peak workload, VO2max, FARS-Neuro, and T25FW) were examined to explore for possible endpoints for future studies in FRDA. Nonparametric statistics were used to compare the results of those receiving 11,11-D2-linoleic acid ethyl ester to comparator. A modified intention-to-treat (mITT) population was used for the VO2max and peak workload testing analysis because 2 subjects were unable to complete the exercise test. One subject was unable to establish required pedal cadence, and the test was terminated at the conclusion of the warm-up at baseline and day 27 and 1 subject had to stop the day 27 testing because the subject's knees were hitting together and the subject was unable to maintain the RPM. […] After Bonferroni adjustment for testing the four outcomes, the change in peak workload between study drug and comparator remained significant (P=0.032). This Bonferroni adjustment is standard in early-stage trials to analyze both prospective or post-hoc data from multiple exploratory efficacy endpoints in order, to determine the most suitable primary endpoint for subsequent pivotal trials.

[4] = Red blood cell (RBC) concentrations by LC-MS in the phase I/II trial; format: in vivo, human
Experimental: as §1, §2
The ability of 11,11-D2-linoleic acid ethyl ester to enter the cellular membrane compartment was assessed by measuring 11,11-D2-linoleic acid ethyl ester and LA concentration in RBCs during the 28-day period.

[5] = system: Friedreich's ataxia patients; test: Friedreich's Ataxia Rating Scale-Neurological (FARS-Neuro); format: in vivo, human
Text: as §3, with “The protocol included: 5 minutes of rest; 3 minutes of an unloaded cycling warm-up; a progressive protocol with increased workload each minute (5-25 watts based on estimated functional capacity); 2 minutes of an unloaded cycling recovery; and 10 minutes of passive recovery.” left out, “Scc Pescatello et al., Thompson P. ACSM's Guidelines for Exercise Testing and Prescription. Baltimore, MD: Wolters Kluwer; 2014:114-141.” left out, “Endpoints of interest were peak oxygen consumption (VO2 peak) and peak workload.” left out, “trial. […]” for “trial.”

[6] = system: Friedreich's ataxia patients; test: Timed 25-foot walk (T25FW) with electronic motion sensor or stopwatch; format: in vivo, human
Text: as §3, with “The protocol included: 5 minutes of rest; 3 minutes of an unloaded cycling warm-up; a progressive protocol with increased workload each minute (5-25 watts based on estimated functional capacity); 2 minutes of an unloaded cycling recovery; and 10 minutes of passive recovery.” left out, “Scc Pescatello et al., Thompson P. ACSM's Guidelines for Exercise Testing and Prescription. Baltimore, MD: Wolters Kluwer; 2014:114-141.” left out, “Endpoints of interest were peak oxygen consumption (VO2 peak) and peak workload.” left out, “trial. […]” for “trial.”

[7] = drug group, cohort 2 (4.5 g BID), 28 days

SMILES: [2H]C([2H])(/C=C\C/C=C\C/C=C\CCCC(=O)O)/C=C\CCCCC [D2-AA, 13,13-D2-arachidonic acid]
- Mean plasma concentration of D2-AA ([1]; high dose (4.5 g BID), 72-hour period after the last dose (day 28)): around 22 μg/mL
- Plasma concentration of D2-AA (metabolite) ([1]; high dose, predose baseline and day 1, LOQ 1 μg/mL): below or slightly above the LOQ
- Plasma concentration of D2-AA (metabolite) ([1]; low dose 11,11-D2-linoleic acid ethyl ester, day 1): below quantitation
- Mean plasma concentration of D2-AA, maximum at 32 hours after the last dose ([1]; low dose (1.8 g QD), after day 28): 5530 ng/mL
- Mean plasma concentration of D2-AA, maximum at 6 hours after the last dose ([1]; low dose (1.8 g QD), day 28): 3860 ng/mL

SMILES: CCCCC/C=C\C/C=C\CCCCCCCC(=O)OCC [comparator, ethyl linoleate, reference compound]
- Diarrhea (TEAE) ([2]; both, human, in vivo, 28 days): 1 subject
- Median change from baseline in peak oxygen consumption (VO2max) [3]: -0.02 L/min

SMILES: [2H]C([2H])(/C=C\CCCCC)/C=C\CCCCCCCC(=O)OCC [11,11-D2-linoleic acid ethyl ester]
- Diarrhea assessed as "possibly related to study drug" [2, 7]: 3 subjects
- Diarrhea assessed as "probably related to study drug" [2, 7]: 1 subject
- Subjects who discontinued the study because of steatorrhea ([2]; high-dose group (cohort 2), BMI 15.4, within the first week): One
- Safety and tolerability ([2]; 28 days): safe and tolerable
- Safety and tolerability ([2]; 28 days, listed as 11,11,D2-linoleic acid ethyl ester): well tolerated
- Increase of day 28 24-hour AUC when the daily dose was increased 5-fold ([1]; human, in vivo): approximately 4 fold
- Time of maximum plasma D2-LA concentration ([1]; in vivo): 8 to 10 h
- Time to steady state in the plasma and in RBCs ([1]; in vivo, po): ≤ 28 days
- RBC concentration of D2-LA as percentage of total LA (D2-LA plus LA), mean ([4]; cohort 1): 6.52%
- RBC concentration of D2-LA as percentage of total LA (D2-LA plus LA), mean ([4]; cohort 2): 25.8%
- Mean RBC concentration of D2-LA ([4]; day 28, cohort 1 (1.8 g QD)): 14.6 ± 8.7 µg/mL
- Mean RBC concentration of D2-LA ([4]; day 28, cohort 2 (4.5 g BID)): 26.1 ± 19.2 µg/mL
- Change in VO2max between drug and comparator ([3]; baseline to day 28): 17.5%
- Median change from baseline in peak oxygen consumption (VO2max) [3]: 0.14 L/min
- Change in peak workload in the drug group at study end-point ([3]; baseline to day 28, mITT): 25.7%
- Improvement in peak workload from baseline to day 28 ([3]; study drug (n=10) versus comparator (n=6), mITT, P=0.008): 0.16 watts/kg
- Median decrease in FARS-Neuro ([5]; baseline to day 28): 4.75 FARS points
- Difference in FARS points decrease between drug and placebo groups ([5]; baseline to day 28, P=0.348 ITT): 1.95 FARS points
- T25FW^−1 time, traditionally measured (by stopwatch) ([6]; P=0.88): no signal of significance
- Improvement of stride speed (stride time)^−1 ([6]; electronic motion sensing device on the ankle, 25-foot timed walk, P=0.15 ITT): 7%
